# Tests used:
# [1] = target: T1, Glutamate receptor ionotropic, AMPA (Rattus norvegicus, UniProt P19490+P19491+P19492+P19493); assay: Binding affinity towards ionotropic glutamate receptor AMPA in rat cortical membranes using [3H]AMPA radioligand; assay type: cell membranes
# [2] = target: T2, Glutamate receptor ionotropic, NMDA 1 (Rattus norvegicus, UniProt P35439); assay: Functional antagonism at the NMDA receptor-ion channel complex was demonstarted by the ability to inhibit the binding of the channel-blocking agent [3H](+)-MK-801
# [3] = target: T2, Glutamate receptor ionotropic, NMDA 1; assay: The compound was tested for its binding affinity towards Glycine/NMDA receptor in rat cortical membranes using [3H]glycine as radioligand; assay type: cell membranes
# [4] = target: T2, Glutamate receptor ionotropic, NMDA 1; assay: Binding affinity towards N-methyl-D-aspartate glutamate receptor 1 in rat cortical membranes using [3H]glycine as radioligand; assay type: cell membranes
# [5] = target: T2, Glutamate receptor ionotropic, NMDA 1; assay: Functional antagonism at the N-methyl-D-aspartate glutamate receptor 1 was demonstarted by the ability to inhibit the binding of the channel-blocking agent [3H](+)-MK-801
# [6] = target: T1, Glutamate receptor ionotropic, AMPA; assay: The compound was tested for its binding affinity towards AMPA receptor in rat cortical membranes using [3H]AMPA radioligand; assay type: cell membranes
SMILES,Ki [1] [µM],EC50 [2] [µM],Ki [3] [µM],Ki [4] [µM],EC50 [5] [µM],Ki [6] [µM]
OCc1nc2c(O)nc3cc(Cl)ccc3n2n1,4.4,,,7.5,,
O=C(O)Cc1nc2c(O)nc3cc(Cl)ccc3n2n1,3.7,,,1.1,,
CCOC(=O)c1nc2c(=O)[nH]c3cc(Cl)cc(Cl)c3n2n1,4.9,,,4.8,,
O=C(O)c1nc2c(=O)[nH]c3ccccc3n2n1,13.6,,,1.1,4.9,
CCOC(=O)c1nc2c(=O)[nH]c3cc(N)ccc3n2n1,> 100,,,> 100,> 100,
O=C(O)c1nc2c(O)nc3ccc([N+](=O)[O-])cc3n2n1,10.7,,,79.4,> 100,
CCn1c(=O)c2nc(C(=O)O)nn2c2ccc(Cl)cc21,> 100,,,88,> 100,
CCOC(=O)c1nc2c(O)nc3cc(Cl)c(Cl)cc3n2n1,33.9,,,0.71,1.5,
O=C(O)c1cc(O)c2c(Cl)cc(Cl)cc2n1,,,,,0.33,
O=C(O)c1nc2c(=O)[nH]c3ccc(Cl)cc3n2n1,18.4,,,3.5,32.5,
O=C(NO)c1nc2c(O)nc3cc(Cl)ccc3n2n1,,,1.1,,,3
CCOC(=O)c1nc2c(=O)[nH]c3cc(C(F)(F)F)ccc3n2n1,3.6,,,1.8,,
O=C(O)c1nc2c(=O)[nH]c3cc([N+](=O)[O-])ccc3n2n1,0.6,,,0.71,7.8,
O=C(O)c1nc2c(=O)[nH]c3cc(Br)ccc3n2n1,4.4,,,0.39,3.7,
NC(=O)c1nc2c(=O)[nH]c3cc(Cl)ccc3n2n1,11.7,,,7.2,,
O=C(O)c1nc2c(O)nc3c([N+](=O)[O-])cc(Cl)cc3n2n1,4,,,4.5,> 100,
NNC(=O)c1nc2c(=O)[nH]c3cc(Cl)ccc3n2n1,,,9.6,,,5
CCOC(=O)c1nc2c(=O)[nH]c3ccc(Cl)cc3n2n1,72.1,,,88.2,,
COC(=O)CNC(=O)c1nc2c(=O)[nH]c3cc(Cl)ccc3n2n1,4.1,,,5.4,,
O=C(NCCO)c1nc2c(O)nc3cc(Cl)ccc3n2n1,7.7,,,27.7,,
CCOC(=O)c1nc2c(O)nc3ccccc3n2n1,28.5,,,16.7,69,

# Next, values leading:
Ki [1] [µM],EC50 [2] [µM],Ki [3] [µM],Ki [4] [µM],EC50 [5] [µM],Ki [6] [µM],SMILES
1.3,0.3,0.074,,,,O=C(O)c1nc2c(=O)[nH]c3cc(Cl)c(Cl)cc3n2n1
1.2,,,2.2,,,O=C(O)c1nc2c(O)nc3cc(Cl)c([N+](=O)[O-])cc3n2n1
1.53,,,0.14,1.35,,O=C(O)c1nc2c(=O)[nH]c3cc(Cl)cc(Cl)c3n2n1
3.2,,,8.8,,,O=C(O)CNC(=O)c1nc2c(O)nc3cc(Cl)ccc3n2n1
3.3,,,2.6,,,CCOC(=O)c1nc2c(O)nc3cc(Br)ccc3n2n1
2.4,,,5.1,,,O=C(Nc1nn[nH]n1)c1nc2c(O)nc3cc(Cl)ccc3n2n1
2.1,,,6.5,,,CCOC(=O)Cc1nc2c(=O)[nH]c3cc(Cl)ccc3n2n1
0.78,,,0.17,2.9,,O=C(O)c1nc2c(O)nc3cc(Cl)ccc3n2n1
2.6,,,3,22.1,,CCOC(=O)c1nc2c(O)nc3cc(Cl)ccc3n2n1
2,,,9.7,,,N#CCc1nc2c(O)nc3cc(Cl)ccc3n2n1
0.9,,,0.57,3.18,,O=C(O)c1nc2c(O)nc3cc(C(F)(F)F)ccc3n2n1
